From patent US20250041176A1, “An antimicrobial composition” (Conopco, Inc., d/b/a UNILEVER, priority 2021, published 2025)

The compounds below were run on C. acnes (ATCC 6919) (assay: Growth of C. acnes, MIC plate method). Settings: actives at the stated % in 20 ml agar; 10 μl inoculum spotted; 37° C. 4-5 days anaerobically.
Assay type: cell-based, Cutibacterium acnes
Procedure: The actives whether used singly or in combination as shown in Table-1 were tested for growth of C. acnes using the invitro protocol as given below:
Protocol used for Measuring Growth (MIC Plate Method)
Working Cultures of Test Organisms
For C. acnes (ATCC 6919): Approximately 4-5 days prior to testing, a sterile plate of […] (RCM Agar) was inoculated with the challenge bacterial test organism and incubated at 37° C.±1° C. for 4-5 days anaerobically.
Test Organism Suspensions (To Be Prepared Just Before Use)
A suspension of the challenge microorganism was prepared in sterile 0.85% saline and a cell density were adjusted at 620 nm to achieve a challenge suspension concentration of approximately 1.0×10^8 colony forming units per ml for bacteria
Preparation of Sample Concentrations
• a) Aliquot of samples were taken to achieve required test concentration in 20 ml of agar system. • b) Test samples were initially dissolved in 1 ml of sample diluent (sterile d/water or solvent) to get test solutions • c) The test solutions were added to 20 ml sterile molten agar maintained at a temperature of 45-50° C., mixed thoroughly and poured into petri plates. The agar was allowed to solidify at room temperature. • d) On solidification, 10μl inoculum of prepared test culture was spotted onto respective agar surfaces in duplicates • e) The inoculated plates were allowed to stand at room temperature until the inoculum spots had been absorbed into the agar. The plates were incubated at 37° C. ±1° C. for 4-5 days anaerobically. After completion of incubation, plates were checked for growth and no growth to determine the MIC value.

SMILES | Observation (growth of C. acnes)
CCC(C)c1ccc(O)cc1 (stereo not drawn) [C, 4 sec butyl phenol] | Growth
Oc1ccc(C2CCCC2)cc1 [E, 4 cyclo pentyl phenol] | Growth
CCCCCCc1ccc(O)cc1O [Example A, 4 hexyl resorcinol] | Growth
